Structures can show the parent of a compound that is named as a salt.
Row | SMILES | melting point [°C]
1 | Fc1cccc2c1CN1C(CSC3=NCc4ccccc4N3)=CSC1=N2 (as salt: hydrochloride) [Example 18, 3-(((3,4-dihydroquinazolin-2-yl)thio)methyl)-6-fluoro-5H-thiazolo[2,3-b]quinazoline dihydrochloride] | 193 to 203
2 | C1=C(CSC2=N[C@@H](c3ccccc3)[C@H](c3ccccc3)N2)N2Cc3ccccc3CN=C2S1 (as salt: hydrochloride) [Example 24, 3-((((4S,5S)-4,5-diphenyl-4,5-dihydro-1H-imidazol-2-yl)thio)methyl)-5,10-dihydrobenzo[e]thiazolo[3,2-a][1,3]diazepine dihydrochloride] | 178 to 185
3 | C1=C(CSC2=NCC(C3CCCCC3)N2)N2Cc3ccccc3CN=C2S1 (stereo not drawn) (as salt: hydrochloride) [Example 26, 3-(((4-cyclohexyl-4,5-dihydro-1H-imidazol-2-yl)thio)methyl)-5,10-dihydrobenzo[e]thiazolo[3,2-a][1,3]diazepine dihydrochloride] | 174 to 180
4 | Cl.c1ccc2c(c1)CN=C(SCc1csc3nc4ccccc4n13)N2 [Example 96] | > 250
5 | Cc1ccc(CC2CN3C(CSC4=NCc5ccccc5N4)=CSC3=N2)cc1 (stereo not drawn) (as salt: hydrochloride) [Example 122, 3-(((1,4-dihydroquinazolin-2-yl)thio)methyl)-6-(4-methylbenzyl)-5,6-dihydroimidazo[2,1-b]thiazole dihydrochloride] | 158 to 170
6 | COc1cc2nc3n(c2cc1OC)C(O)(CSC1=NCc2ccccc2N1)CS3.Cl (stereo not drawn) | 235 to 240
7 | C1=C(CSC2=NCCc3ccccc3N2)N2Cc3ccccc3CN=C2S1 (as salt: hydrochloride) [Example 25, 3-(((4,5-dihydro-1H-benzo[d][1,3]diazepin-2-yl)thio)methyl)-5,10-dihydrobenzo[e]thiazolo[3,2-a][1,3]diazepine dihydrochloride] | > 250
8 | c1ccc(CC2CN=C(SCCN3CCCCC3)N2)cc1 (stereo not drawn) (as salt: hydrochloride) [Example 50, 1-(2-((5-benzyl-4,5-dihydro-1H-imidazol-2-yl)thio)ethyl)piperidine dihydrochloride] | 50 to 60
9 | CCCCN1C(SCC2=CSC3=NC(Cc4ccccc4)CN23)=NCc2ccccc21 (stereo not drawn) (as salt: hydrochloride) [Example 99, 6-benzyl-3-(((1-butyl-1,4-dihydroquinazolin-2-yl)thio)methyl)-5,6-dihydroimidazo[2,1-b]thiazole dihydrochloride] | 50 to 58
10 | c1ccc2c(c1)CN(CCSC1=NCc3ccccc3N1)C2 (as salt: hydrochloride) [Example 71, 2-((2-(isoindolin-2-yl)ethyl)thio)-3,4-dihydroquinazoline dihydrochloride] | 134 to 138
11 | IC1=C(CSC2=NCc3ccccc3N2)N2CC(Cc3ccccc3)N=C2S1 (stereo not drawn) (as salt: hydrochloride) [Example 110, 6-benzyl-3-(((1,4-dihydroquinazolin-2-yl)thio)methyl)-2-iodo-5,6-dihydroimidazo[2,1-b]thiazole dihydrochloride] | 177 to 182
12 | c1ccc(C2CCCN2CCSC2=NCc3ccccc3N2)cc1 (stereo not drawn) (as salt: hydrochloride) [Example 128, 2-((2-(2-phenylpyrrolidin-1-yl)ethyl)thio)-1,4-dihydroquinazoline dihydrochloride] | 94 to 108
13 | C1=C(CSC2=NCC(Cc3ccccc3)N2)N2Cc3ccccc3N=C2S1 (stereo not drawn) (as salt: hydrochloride) [Example 33, 3-(((5-benzyl-4,5-dihydro-1H-imidazol-2-yl)thio)methyl)-5H-thiazolo[2,3-b]quinazoline dihydrochloride] | > 250
14 | Fc1ccc2c(c1)CN1C(CSC3=NCc4ccccc4N3)=CSC1=N2 (as salt: hydrochloride) [Example 84, 3-(((1,4-dihydroquinazolin-2-yl)thio)methyl)-7-fluoro-5H-thiazolo[2,3-b]quinazoline dihydrochloride] | > 250
15 | Cc1cccc(CC2CN3C(CSC4=NCc5ccccc5N4)=CSC3=N2)c1 (stereo not drawn) (as salt: hydrochloride) [Example 112, 3-(((1,4-dihydroquinazolin-2-yl)thio)methyl)-6-(3-methylbenzyl)-5,6-dihydroimidazo[2,1-b]thiazole dihydrochloride] | 136 to 145
16 | CC1N=C(SCC2=CSC3=NC(Cc4ccccc4)CN23)Nc2ccccc21 (stereo not drawn) (as salt: hydrochloride) [Example 113, 6-benzyl-3-(((4-methyl-1,4-dihydroquinazolin-2-yl)thio)methyl)-5,6-dihydroimidazo[2,1-b]thiazole dihydrochloride] | 80 to 88
17 | COc1ccc(CC2(C)CN3C(CSC4=NCc5ccccc5N4)=CSC3=N2)cc1 (stereo not drawn) (as salt: hydrochloride) [Example 46, 3-(((3,4-dihydroquinazolin-2-yl)thio)methyl)-6-(4-methoxybenzyl)-6-methyl-5,6-dihydroimidazo[2,1-b]thiazole dihydrochloride] | 156 to 168
18 | c1ccc2c(c1)CN=C(SCCCCN1CCCC1)N2 (as salt: hydrochloride) [Example 137, 2-((4-(pyrrolidin-1-yl)butyl)thio)-1,4-dihydroquinazoline dihydrochloride] | 78 to 85
19 | C1=C(CSC2=Nc3ccccc3C(c3ccccc3)N2)N2Cc3ccccc3CN=C2S1 (stereo not drawn) (as salt: hydrochloride) [Example 27, 3-(((4-phenyl-3,4-dihydroquinazolin-2-yl)thio)methyl)-5,10-dihydrobenzo[e]thiazolo[3,2-a][1,3]diazepine dihydrochloride] | 203 to 210
20 | c1ccc2c(c1)CN=C(SCCN1[C@@H]3CCC[C@H]1CC3)N2 (as salt: hydrochloride) [Example 133, 2-((2-((1R,5S)-8-azabicyclo[3.2.1]octan-8-yl)ethyl)thio)-3,4-dihydroquinazoline dihydrochloride] | 52 to 70
21 | CCCCN1CCN=C1SCC1=CSC2=NCc3ccccc3CN12 (as salt: hydrochloride) [Example 37, 3-(((1-butyl-4,5-dihydro-1H-imidazol-2-yl)thio)methyl)-5,10-dihydrobenzo[e]thiazolo[3,2-a][1,3]diazepine dihydrochloride] | 206 to 212
22 | c1ccc2c(c1)CN=C(SCCN1CCCC1)N2 (as salt: hydrochloride) [Example 77, 2-((2-(pyrrolidin-1-yl)ethyl)thio)-1,4-dihydroquinazoline dihydrochloride] | 195 to 203
23 | COc1ccc(CC2(C)CN=C(SCC3=CSC4=NCc5ccccc5CN34)N2)cc1 (stereo not drawn) (as salt: hydrochloride) [Example 34, 3-(((5-(4-methoxybenzyl)-5-methyl-4,5-dihydro-1H-imidazol-2-yl)thio)methyl)-5,10-dihydrobenzo[e]thiazolo[3,2-a][1,3]diazepine dihydrochloride] | 173 to 180
24 | CC1(C)CN=C(SCC2=CSC3=Nc4ccccc4CN23)N1 (as salt: hydrochloride) [Example 5, 3-(((5,5-dimethyl-4,5-dihydro-1H-imidazol-2-yl)thio)methyl)-5H-thiazolo[2,3-b]quinazoline dihydrochloride] | > 250

Reference: patent US20240018125A1, “CYCLIC ISOTHIOUREA DERIVATIVES AS CXCR4 MODULATORS” (ERMIUM THERAPEUTICS, priority 2020, published 2024)
